Test results reported in ChEMBL document CHEMBL1201862, “PubChem BioAssay data set” (2004).
Calls of active or inactive are those of the source.

Experiments:
[1] = target: T1, Coagulation factor XII (Homo sapiens, UniProt P00748); assay type: functional;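 further: activated factor XIIa alpha cleaving a fluorogenic AMC peptide substrate; inhibitor potency from loss of enzyme activity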
T1 sequence (P00748 whole entry): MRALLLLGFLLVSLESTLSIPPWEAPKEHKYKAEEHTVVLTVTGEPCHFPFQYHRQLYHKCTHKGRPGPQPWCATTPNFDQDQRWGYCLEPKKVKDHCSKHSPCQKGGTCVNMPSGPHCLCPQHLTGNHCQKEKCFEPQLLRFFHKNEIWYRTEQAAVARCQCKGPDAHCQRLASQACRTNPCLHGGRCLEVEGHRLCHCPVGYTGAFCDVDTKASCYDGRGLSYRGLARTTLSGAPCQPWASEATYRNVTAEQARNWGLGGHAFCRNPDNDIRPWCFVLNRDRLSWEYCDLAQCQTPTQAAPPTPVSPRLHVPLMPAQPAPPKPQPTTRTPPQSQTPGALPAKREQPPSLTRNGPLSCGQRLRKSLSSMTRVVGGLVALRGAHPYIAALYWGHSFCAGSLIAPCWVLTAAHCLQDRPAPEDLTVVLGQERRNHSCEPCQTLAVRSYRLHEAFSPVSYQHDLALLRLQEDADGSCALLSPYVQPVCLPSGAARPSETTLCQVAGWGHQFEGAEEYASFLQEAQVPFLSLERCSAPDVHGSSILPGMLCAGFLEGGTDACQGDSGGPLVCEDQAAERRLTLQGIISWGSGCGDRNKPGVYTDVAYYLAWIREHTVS

[2] = target: T2, Voltage-gated N-type calcium channel alpha-1B subunit/Amyloid beta A4 precursor protein-binding family A member 1 (Homo sapiens, UniProt Q00975+Q02410); assay type: protein assay
[3] = target: T2, Voltage-gated N-type calcium channel alpha-1B subunit/Amyloid beta A4 precursor protein-binding family A member 1; assay type: protein assay; remark: listed apart in the source
[4] = NIH-3T3 fibroblast cytotoxicity, dose response, cytotoxicity control, cell-based, fluorescence, Alamar Blue, secondary assay (AID 2327); assay type: functional;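 further: NIH-3T3 mouse fibroblasts cultured with fluconazole at 8 µg/mL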
[5] = fluconazole-exposed Candida albicans growth modulators – fluorescence, retest, confirmation (AID 2467); assay type: functional, cell-based
[6] = THP-1 cell cytotoxicity, dose response, cytotoxicity control for non-replicating M. tuberculosis project (AID 489025); assay type: functional
[7] = Luminescence Cell-Based Dose Retest to Confirm Inhibitors of Cancer Stem Cells. [Related pubchem assays (depositor defined):AID2717, AID2721]; assay type: functional; details: Homo sapiens
[8] = cells; assay type: functional
[9] = test system: Vero; test: cells; assay type: functional; details: Chlorocebus sabaeus
[10] = luciferase reporter signal suppression in cells – H4 neuroglioma cells, luminescence, dose response (AID 1990); assay type: functional, cell-based
[11] = test system: BJ; test: BJ-TERT fibroblast viability loss – cell-based, RAS-independent, luminescence, dose response (AID 1933); assay type: functional; details: Homo sapiens
[12] = Luminescence Cell-Based Dose Response HTS to Identify Inhibitors of 5'UTR Stem-Loop Driven Prion Protein mRNA Translation in H4 Neuroglioblastoma Cells. [Related pubchem assays: 1827 (Project Summary), 1813 (Primary HTS)]; assay type: functional
[13] = alpha-synuclein stem-loop luciferase translation blockers – H4 neuroglioma cells, luminescence, confirmation (AID 1988); assay type: functional, cell-based
[14] = test system: BJ; test: cells; assay type: functional, cell-based; details: Homo sapiens
[15] = test system: BJ; test: BJ-TERT-LT-ST fibroblast viability loss – cell-based, RAS-independent, luminescence, dose response (AID 1935); assay type: functional; details: Homo sapiens;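 further: BJ fibroblasts immortalized with TERT plus LT and ST oncogenes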
[16] = DRD fibroblast viability loss – cell-based, non-viral oncogenic, luminescence, dose response (AID 1934); assay type: functional; details: Homo sapiens
[17] = HEK-293T viability loss after treatment – luminescence, T-cell screen hits, cytotoxicity control for TCR NF-kB inhibitor project, dose response (AID 489026); assay type: functional, cell-based;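 further: cells exposed to compound about 14 hours before the viability readout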
[18] = target: T3, Estrogen receptor (Homo sapiens, UniProt P03372);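 further: potency for inhibiting coactivator peptide recruitment to the receptor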
T3 sequence (P03372 whole entry): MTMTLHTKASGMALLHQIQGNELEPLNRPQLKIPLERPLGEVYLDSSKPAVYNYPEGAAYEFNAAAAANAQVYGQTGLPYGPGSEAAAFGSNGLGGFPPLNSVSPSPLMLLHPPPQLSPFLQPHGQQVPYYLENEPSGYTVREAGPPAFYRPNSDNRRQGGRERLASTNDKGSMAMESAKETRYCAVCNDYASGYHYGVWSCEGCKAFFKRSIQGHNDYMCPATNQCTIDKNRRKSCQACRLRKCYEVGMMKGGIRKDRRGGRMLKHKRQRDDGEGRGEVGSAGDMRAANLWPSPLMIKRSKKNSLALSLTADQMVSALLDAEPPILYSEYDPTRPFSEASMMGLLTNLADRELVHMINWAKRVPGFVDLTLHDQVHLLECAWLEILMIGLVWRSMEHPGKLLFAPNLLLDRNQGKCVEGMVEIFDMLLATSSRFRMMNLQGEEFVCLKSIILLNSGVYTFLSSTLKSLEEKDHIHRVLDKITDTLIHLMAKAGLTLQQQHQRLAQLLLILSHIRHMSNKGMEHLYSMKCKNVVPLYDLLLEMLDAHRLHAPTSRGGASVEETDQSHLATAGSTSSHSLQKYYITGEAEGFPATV

[19] = target: Beta-galactosidase (Escherichia coli, UniProt Q8VNN2); test: PubChem AID 485352; assay type: functional
[20] = target: T4, Type-1 angiotensin II receptor (Homo sapiens, UniProt P30556); test: antagonism of angiotensin II type 1 receptor – cell-based, uHTS hits, selectivity assay for APJ receptor antagonist project, dose response (AID 463214); assay type: functional;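 further: antagonist potency against angiotensin II stimulated AT1 response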
T4 sequence (P30556 whole entry): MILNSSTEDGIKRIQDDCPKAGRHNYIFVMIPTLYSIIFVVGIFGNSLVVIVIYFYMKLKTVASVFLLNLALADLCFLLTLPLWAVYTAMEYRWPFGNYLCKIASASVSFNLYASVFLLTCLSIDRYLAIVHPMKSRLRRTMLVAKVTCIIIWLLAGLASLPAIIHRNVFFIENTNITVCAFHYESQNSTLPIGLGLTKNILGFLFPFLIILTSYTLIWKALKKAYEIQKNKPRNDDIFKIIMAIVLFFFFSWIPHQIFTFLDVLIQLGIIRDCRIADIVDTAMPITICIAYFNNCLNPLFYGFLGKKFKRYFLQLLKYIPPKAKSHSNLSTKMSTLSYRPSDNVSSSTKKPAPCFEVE

[21] = target: T5, Replicative DNA helicase DnaB (Mycobacterium tuberculosis, UniProt P9WMR3); test: DnaB intein splicing inhibitors, dose response, biochemical, cell-free fluorescence (AID 449749); assay type: functional
T5 sequence (P9WMR3 whole entry): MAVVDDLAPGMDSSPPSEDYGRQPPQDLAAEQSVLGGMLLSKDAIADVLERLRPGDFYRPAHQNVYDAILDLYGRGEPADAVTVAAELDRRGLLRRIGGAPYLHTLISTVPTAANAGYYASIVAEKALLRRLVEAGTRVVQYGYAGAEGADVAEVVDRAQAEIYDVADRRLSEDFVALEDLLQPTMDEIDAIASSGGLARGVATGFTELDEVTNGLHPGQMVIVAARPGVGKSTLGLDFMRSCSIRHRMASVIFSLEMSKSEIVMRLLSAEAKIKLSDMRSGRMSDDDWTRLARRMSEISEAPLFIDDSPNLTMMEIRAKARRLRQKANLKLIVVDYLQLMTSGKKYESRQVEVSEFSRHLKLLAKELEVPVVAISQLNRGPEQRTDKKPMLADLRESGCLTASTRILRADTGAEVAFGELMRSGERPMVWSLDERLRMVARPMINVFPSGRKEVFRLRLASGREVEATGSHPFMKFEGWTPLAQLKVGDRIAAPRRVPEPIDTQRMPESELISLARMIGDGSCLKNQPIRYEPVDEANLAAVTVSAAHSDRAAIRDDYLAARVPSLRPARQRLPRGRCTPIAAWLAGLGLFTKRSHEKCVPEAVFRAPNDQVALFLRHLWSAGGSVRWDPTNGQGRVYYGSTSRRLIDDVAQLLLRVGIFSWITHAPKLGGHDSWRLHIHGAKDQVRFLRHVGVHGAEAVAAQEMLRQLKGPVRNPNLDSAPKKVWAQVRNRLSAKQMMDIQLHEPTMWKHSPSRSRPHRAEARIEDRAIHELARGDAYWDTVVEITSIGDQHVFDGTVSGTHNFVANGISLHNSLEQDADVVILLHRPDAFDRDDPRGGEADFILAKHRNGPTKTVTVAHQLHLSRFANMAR

[22] = target: T6, Protein RecA (Mycobacterium tuberculosis, UniProt P9WHJ3); test: Fluorescence Cell-Free Homogeneous Dose Retest to Identify Inhibitors of RecA-Intein Splicing Activity. [Related pubchem assays (depositor defined):AID2097, AID2223, AID489010, AID492950]; assay type: functional
T6 sequence (P9WHJ3 whole entry): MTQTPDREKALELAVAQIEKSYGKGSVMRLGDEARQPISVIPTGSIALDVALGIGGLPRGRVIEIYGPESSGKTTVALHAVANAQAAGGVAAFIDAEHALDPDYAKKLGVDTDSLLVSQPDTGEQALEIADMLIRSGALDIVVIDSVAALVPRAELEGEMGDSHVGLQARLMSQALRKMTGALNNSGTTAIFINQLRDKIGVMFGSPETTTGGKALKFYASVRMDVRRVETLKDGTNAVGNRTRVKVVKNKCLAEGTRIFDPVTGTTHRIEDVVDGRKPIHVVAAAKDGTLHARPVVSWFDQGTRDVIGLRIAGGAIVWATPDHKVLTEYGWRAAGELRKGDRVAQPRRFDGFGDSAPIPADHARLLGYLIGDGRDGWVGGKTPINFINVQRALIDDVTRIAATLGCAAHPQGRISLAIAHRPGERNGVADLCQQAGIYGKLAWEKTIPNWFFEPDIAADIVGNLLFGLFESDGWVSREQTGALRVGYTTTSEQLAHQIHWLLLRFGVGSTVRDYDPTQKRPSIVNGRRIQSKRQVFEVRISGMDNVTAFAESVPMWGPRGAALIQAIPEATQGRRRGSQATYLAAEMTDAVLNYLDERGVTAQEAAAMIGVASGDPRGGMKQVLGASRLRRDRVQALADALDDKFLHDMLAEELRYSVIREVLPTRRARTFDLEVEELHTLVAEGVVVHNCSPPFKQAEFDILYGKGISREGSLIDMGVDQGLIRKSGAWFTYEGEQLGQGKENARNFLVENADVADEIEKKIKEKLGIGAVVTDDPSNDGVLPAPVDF

[23] = target: Cytochrome P450 3A4 (Homo sapiens, UniProt P08684);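 further: CYP3A4 tested as one member of a cytochrome P450 panel screen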
[24] = target: Induced myeloid leukemia cell differentiation protein Mcl-1 (Homo sapiens, UniProt Q07820); assay type: functional
Induced myeloid leukemia cell differentiation protein Mcl-1, sequence (Q07820 whole entry): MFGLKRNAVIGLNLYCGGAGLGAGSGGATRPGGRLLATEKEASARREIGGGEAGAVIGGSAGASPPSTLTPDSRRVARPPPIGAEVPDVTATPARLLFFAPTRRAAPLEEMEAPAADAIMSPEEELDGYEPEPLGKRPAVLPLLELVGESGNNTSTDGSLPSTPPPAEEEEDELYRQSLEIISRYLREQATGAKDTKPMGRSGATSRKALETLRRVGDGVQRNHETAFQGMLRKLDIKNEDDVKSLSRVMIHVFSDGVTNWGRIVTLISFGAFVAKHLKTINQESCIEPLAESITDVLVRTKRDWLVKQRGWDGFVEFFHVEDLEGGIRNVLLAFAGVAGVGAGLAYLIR

T2 sequence (Q00975 whole entry): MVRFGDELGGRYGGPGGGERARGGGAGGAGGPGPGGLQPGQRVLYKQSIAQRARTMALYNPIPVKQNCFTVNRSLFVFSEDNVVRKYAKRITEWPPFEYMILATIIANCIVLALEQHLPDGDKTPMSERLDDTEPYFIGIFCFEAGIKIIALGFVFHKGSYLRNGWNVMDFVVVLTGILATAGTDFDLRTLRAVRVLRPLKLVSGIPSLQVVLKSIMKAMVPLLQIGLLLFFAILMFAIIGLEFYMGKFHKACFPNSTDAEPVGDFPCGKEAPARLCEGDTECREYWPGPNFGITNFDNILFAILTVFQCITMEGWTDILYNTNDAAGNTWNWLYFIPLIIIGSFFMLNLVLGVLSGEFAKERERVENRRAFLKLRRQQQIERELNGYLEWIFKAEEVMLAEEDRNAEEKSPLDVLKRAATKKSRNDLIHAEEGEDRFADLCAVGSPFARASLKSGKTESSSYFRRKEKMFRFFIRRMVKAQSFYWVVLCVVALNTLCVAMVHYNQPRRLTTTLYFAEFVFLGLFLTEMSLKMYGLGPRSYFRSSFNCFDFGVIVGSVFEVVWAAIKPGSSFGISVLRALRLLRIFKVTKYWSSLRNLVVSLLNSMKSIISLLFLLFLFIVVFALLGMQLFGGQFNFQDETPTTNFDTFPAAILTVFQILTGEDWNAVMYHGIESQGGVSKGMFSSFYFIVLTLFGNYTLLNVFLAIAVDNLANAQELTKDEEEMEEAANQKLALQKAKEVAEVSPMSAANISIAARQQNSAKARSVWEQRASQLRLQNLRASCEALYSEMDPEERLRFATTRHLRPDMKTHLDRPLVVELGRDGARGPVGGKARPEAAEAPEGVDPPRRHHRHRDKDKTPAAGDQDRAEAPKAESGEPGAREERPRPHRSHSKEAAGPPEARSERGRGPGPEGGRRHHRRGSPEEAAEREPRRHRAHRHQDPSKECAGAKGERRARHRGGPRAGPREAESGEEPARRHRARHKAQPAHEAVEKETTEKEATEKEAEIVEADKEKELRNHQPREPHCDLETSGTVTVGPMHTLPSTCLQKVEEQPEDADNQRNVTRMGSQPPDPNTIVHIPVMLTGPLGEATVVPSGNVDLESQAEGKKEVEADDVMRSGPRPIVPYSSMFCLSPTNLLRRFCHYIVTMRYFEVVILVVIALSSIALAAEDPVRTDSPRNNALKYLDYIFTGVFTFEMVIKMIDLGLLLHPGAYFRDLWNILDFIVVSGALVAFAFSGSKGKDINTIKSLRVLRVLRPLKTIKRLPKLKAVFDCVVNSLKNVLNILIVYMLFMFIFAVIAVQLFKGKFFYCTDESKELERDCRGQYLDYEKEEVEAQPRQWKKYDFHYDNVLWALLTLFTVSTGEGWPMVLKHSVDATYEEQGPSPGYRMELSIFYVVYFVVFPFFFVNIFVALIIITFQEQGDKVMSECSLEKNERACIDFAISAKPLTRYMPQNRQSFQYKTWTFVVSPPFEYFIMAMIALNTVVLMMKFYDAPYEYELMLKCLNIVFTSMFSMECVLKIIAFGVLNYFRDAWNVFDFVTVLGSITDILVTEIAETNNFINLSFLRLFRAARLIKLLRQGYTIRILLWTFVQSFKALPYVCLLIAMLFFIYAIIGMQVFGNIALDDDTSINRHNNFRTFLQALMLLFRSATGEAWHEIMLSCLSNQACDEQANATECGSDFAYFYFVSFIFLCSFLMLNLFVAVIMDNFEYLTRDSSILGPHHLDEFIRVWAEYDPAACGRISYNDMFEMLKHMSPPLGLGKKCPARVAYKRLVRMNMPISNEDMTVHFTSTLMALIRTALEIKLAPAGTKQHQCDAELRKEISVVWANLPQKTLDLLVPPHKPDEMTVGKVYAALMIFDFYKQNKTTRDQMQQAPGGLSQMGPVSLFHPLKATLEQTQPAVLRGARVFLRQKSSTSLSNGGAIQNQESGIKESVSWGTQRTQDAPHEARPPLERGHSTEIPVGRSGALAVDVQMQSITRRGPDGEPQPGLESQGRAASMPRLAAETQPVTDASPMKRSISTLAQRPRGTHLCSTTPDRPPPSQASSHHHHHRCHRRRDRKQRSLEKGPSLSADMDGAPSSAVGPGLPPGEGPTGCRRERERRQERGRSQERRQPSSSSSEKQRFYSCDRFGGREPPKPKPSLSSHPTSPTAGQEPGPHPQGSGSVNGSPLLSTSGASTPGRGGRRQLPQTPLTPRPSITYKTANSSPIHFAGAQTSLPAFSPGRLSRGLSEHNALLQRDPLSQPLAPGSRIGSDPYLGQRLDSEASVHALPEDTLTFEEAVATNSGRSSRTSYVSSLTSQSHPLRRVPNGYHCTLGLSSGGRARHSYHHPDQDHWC
T2 sequence (Q02410 whole entry): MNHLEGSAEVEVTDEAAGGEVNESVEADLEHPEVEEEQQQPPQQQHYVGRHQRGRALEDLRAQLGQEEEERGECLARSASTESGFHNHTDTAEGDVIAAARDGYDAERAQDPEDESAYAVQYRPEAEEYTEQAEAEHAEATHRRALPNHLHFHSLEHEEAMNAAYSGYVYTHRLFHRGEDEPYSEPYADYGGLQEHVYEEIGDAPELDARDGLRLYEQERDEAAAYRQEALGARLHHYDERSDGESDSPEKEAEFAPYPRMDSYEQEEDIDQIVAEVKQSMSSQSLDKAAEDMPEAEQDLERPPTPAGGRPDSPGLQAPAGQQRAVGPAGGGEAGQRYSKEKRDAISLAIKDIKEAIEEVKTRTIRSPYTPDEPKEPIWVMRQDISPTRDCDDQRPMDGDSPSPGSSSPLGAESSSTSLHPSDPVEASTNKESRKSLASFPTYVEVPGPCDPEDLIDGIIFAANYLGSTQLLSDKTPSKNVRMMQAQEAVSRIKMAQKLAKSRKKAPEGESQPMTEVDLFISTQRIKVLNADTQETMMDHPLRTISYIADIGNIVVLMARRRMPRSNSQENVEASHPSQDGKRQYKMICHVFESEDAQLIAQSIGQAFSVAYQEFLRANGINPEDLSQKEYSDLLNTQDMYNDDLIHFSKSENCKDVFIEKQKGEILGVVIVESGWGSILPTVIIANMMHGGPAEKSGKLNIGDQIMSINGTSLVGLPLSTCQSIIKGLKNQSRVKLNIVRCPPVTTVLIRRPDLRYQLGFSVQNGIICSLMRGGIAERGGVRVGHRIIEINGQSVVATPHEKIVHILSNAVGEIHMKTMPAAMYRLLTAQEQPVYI
Cytochrome P450 3A4, sequence (P08684 whole entry): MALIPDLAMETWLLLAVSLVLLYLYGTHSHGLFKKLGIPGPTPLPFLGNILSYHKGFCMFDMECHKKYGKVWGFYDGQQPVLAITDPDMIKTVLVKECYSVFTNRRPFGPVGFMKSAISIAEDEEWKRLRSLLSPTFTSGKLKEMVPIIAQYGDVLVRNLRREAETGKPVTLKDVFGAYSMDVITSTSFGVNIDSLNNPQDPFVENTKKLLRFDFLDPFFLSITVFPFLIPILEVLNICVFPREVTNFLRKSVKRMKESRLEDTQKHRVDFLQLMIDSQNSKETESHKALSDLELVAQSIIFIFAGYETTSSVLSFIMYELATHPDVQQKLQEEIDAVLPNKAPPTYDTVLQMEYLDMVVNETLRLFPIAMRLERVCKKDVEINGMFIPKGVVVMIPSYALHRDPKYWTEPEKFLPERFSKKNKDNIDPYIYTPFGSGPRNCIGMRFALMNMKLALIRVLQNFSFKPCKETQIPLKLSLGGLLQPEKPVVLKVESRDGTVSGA
Beta-galactosidase, sequence (Q8VNN2 whole entry): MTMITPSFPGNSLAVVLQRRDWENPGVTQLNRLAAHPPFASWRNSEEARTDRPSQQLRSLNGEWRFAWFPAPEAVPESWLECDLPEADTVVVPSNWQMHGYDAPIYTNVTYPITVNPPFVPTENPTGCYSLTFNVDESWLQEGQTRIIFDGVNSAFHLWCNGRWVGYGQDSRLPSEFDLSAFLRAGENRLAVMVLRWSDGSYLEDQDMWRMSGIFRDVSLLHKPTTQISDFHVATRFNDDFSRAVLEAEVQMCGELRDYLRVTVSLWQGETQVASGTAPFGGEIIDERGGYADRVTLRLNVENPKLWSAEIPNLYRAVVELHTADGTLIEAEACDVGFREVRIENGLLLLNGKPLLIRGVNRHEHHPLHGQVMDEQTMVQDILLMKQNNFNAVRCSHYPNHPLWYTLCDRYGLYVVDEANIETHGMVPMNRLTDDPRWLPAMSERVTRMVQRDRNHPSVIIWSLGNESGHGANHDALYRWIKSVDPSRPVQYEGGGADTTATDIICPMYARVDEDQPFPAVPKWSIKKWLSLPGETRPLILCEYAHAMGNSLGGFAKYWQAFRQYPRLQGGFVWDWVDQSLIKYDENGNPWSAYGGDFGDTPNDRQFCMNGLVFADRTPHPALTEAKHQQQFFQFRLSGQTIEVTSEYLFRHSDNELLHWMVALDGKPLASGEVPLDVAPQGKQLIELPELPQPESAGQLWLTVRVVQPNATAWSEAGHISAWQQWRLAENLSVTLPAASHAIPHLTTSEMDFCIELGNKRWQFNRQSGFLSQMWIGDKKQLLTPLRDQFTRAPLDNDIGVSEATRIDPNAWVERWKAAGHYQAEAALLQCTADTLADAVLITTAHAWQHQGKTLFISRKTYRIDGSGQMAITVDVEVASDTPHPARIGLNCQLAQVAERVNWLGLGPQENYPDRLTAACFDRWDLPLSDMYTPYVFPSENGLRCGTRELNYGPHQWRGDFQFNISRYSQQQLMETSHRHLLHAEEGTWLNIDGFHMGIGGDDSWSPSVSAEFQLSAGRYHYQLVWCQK

Structure (SMILES): Cc1cccc(Nc2cc(=O)[nH]c(=O)[nH]2)c1C
- IC50 [1]: > 50 µM (inactive)

Structure (SMILES): O=C(Nc1cnc(O)nc1O)c1ccc2c(c1)C(=O)N(c1cccc([N+](=O)[O-])c1)C2=O
- IC50 [2]: 9.85 µM (active)
- IC50 [3]: > 50 µM (inactive)

Structure (SMILES): OC(CNCCc1ccc(C(F)(F)F)cc1)COc1ccc2ccccc2c1 (stereo not drawn)
- EC50 [4]: 7.21 µM (active)
- EC50 [5]: > 38 µM (not active)
- CC50 [6]: > 40 µM (active)
- AC50 [7]: 3.34 µM (active)
- IC50 [8]: 22.4 µM (active)
- CC50 [9]: 16.6 µM (active)

Structure (SMILES): CCOc1ccc(N=C(N)Nc2nc(CSc3nnc(C)s3)cc(=O)[nH]2)cc1
- IC50 [1]: > 50 µM (inactive)

Structure (SMILES): CCOc1ccc(NC(=N)Nc2nc(O)cc(CSc3nnc(C)s3)n2)cc1
- EC50 [10]: 9.79 µM (active)
- EC50 [11]: 1.11 µM (active)
- EC50 [12]: 0.291 µM (active)
- EC50 [13]: 5.83 µM (active)
- EC50 [14]: 20.6 µM (active)
- EC50 [15]: 1.37 µM (active)
- EC50 [16]: 0.597 µM (active)
- AC50 [7]: 0.298 µM (active)
- IC50 [17]: > 80 µM (inactive)

Structure (SMILES): CCN(CC)C(=O)C(C(=O)c1cccc([N+](=O)[O-])c1)n1cc(Cl)ccc1=O (stereo not drawn)
- EC50 [11]: > 150 µM (not active)
- EC50 [14]: > 150 µM (not active)
- EC50 [15]: > 150 µM (inconclusive)
- EC50 [16]: > 150 µM (not active)

Structure (SMILES): O=c1[nH]c(-c2ccc3c(c2)OCO3)nc2c1sc(=S)n2-c1ccccc1
- IC50 [2]: 5.13 µM (active)
- IC50 [3]: > 50 µM (inactive)

Structure (SMILES): CCCc1nnc2n1N=C(c1ccc(-c3cc(Cl)ccc3Cl)o1)CS2
- IC50 [18]: 13.4 µM (active)

Structure (SMILES): CN1CCN(S(=O)(=O)c2ccc(Br)s2)CC1
- IC50 [1]: > 50 µM (inactive)

Structure (SMILES): O=C(CSc1nc2c(c(=O)n1-c1ccc(Br)cc1)SCC2)Nc1nccs1
- IC50 [18]: > 50 µM (not active)

Structure (SMILES): COc1cc(NC(=O)c2ccccc2F)ccc1NC(=O)c1cc2ccccc2o1
- IC50 [2]: 15.9 µM (active)
- IC50 [3]: > 50 µM (inactive)

Structure (SMILES): COc1cccc(NC(=N)Nc2nc(O)cc(CSc3ccccn3)n2)c1
- IC50 [17]: > 80 µM (inactive)

Structure (SMILES): COC(=O)CS(=O)(=O)c1nnc([C@H](Cc2ccccc2)NC(=O)OC(C)(C)C)o1
- EC50 [19]: > 40 µM (inactive)
- IC50 [20]: 12.4 µM (active)
- IC50 [1]: 8.95 µM (active)
- AC50 [21]: 6.11 µM (active)
- EC50 [22]: 7.24 µM (active)

Structure (SMILES): COc1cc(OC)nc(NC(=O)C(C)C)n1
- IC50 [18]: > 50 µM (not active)

Structure (SMILES): CCCCOc1ccccc1C1CC(=O)NC2=C1C(=O)CCC2 (stereo not drawn)
- IC50 [17]: > 80 µM (inactive)
- AC50 [23]: 15.8 µM (inconclusive)

Structure (SMILES): COC(Cn1c(C)c(C(C)=O)c(C(C)=O)c1C)OC
- IC50 [1]: > 50 µM (inactive)

Structure (SMILES): CC(/C=C/c1ccco1)=N\NC(=O)c1cc(C)[nH]n1
- IC50 [2]: 4.52 µM (active)
- IC50 [3]: 11.8 µM (active)
- IC50 [24]: 4.92 µM (active)
